From patent publication US6610665B1 (Smithkline Beecham Corporation, priority 1998, dated 2003)
Where a name gives a salt, the structure may show the parent alone.

Legend:
Assay type in all cases: cell-based
Conditions in all cases: ratio to NECA
adenosine 2a receptor = biological target: T1, adenosine 2a receptor (Homo sapiens, UniProt P29274); assay: Agonist activity, CHO cells transfected with human adenosine receptor and CRE-SPAP reporter; basal cAMP (A2a)
T1 construct: expressed in transfected cells; host or cells: CHO cells
T1 sequence (P29274 whole entry): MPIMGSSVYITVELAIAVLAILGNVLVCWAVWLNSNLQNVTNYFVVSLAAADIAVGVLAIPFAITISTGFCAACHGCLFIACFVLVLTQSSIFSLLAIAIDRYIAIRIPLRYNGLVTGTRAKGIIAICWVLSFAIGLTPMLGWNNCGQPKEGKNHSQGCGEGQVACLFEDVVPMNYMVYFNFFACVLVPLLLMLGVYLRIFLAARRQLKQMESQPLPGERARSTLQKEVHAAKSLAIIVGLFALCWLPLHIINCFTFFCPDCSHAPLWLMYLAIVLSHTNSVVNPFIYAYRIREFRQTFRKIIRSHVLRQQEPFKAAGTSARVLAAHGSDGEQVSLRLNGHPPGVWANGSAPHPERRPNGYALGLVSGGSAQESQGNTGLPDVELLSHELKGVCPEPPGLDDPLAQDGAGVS
Experimental: (§1) (1) Agonist activity against adenosine 2a, adenosine 1 and adenosine 3 receptor subtypes.
(§2) Agonist selectivity of compounds against other human adenosine receptors is determined using Chinese hamster ovary (CHO) cells transfected with the gene for the relevant human adenosine receptor following a method based on that of Castanon and Spevak, 1994. The CHO cells are also transfected with cyclic AMP response elements promoting the gene for secreted placental alkaline phosphatase (SPAP) (Wood, 1995). The effect of test compounds may be determined by their effects on basal levels of CAMP (A2a) or on forskolin-enhanced cAMP (A1 and A3) as reflected by changes in levels of SPAP. EC50 values for compounds may then be determined as a ratio to that of the non-selective agonist N-ethyl carboxamide adenosine (NECA).

adenosine 1 receptor = biological target: T2, adenosine 1 receptor (Homo sapiens, UniProt P30542); assay: Agonist activity, CHO cells transfected with human adenosine receptor and CRE-SPAP reporter; forskolin-enhanced cAMP (A1)
T2 construct: expressed in transfected cells; host or cells: CHO cells
T2 sequence (P30542 1-326): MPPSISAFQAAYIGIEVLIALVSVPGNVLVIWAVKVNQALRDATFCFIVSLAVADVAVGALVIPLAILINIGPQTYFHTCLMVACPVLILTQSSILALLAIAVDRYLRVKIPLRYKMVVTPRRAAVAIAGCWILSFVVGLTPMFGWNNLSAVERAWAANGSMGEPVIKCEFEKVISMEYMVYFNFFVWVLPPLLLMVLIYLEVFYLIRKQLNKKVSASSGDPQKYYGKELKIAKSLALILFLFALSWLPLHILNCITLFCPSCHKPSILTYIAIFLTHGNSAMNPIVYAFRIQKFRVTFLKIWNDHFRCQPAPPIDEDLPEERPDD
Experimental: as §1, §2

adenosine 3 receptor = biological target: T3, adenosine 3 receptor (Homo sapiens, UniProt P0DMS8); assay: Agonist activity, CHO cells transfected with human adenosine receptor and CRE-SPAP reporter; forskolin-enhanced cAMP (A3)
T3 construct: expressed in transfected cells; host or cells: CHO cells
T3 sequence (P0DMS8 1-318): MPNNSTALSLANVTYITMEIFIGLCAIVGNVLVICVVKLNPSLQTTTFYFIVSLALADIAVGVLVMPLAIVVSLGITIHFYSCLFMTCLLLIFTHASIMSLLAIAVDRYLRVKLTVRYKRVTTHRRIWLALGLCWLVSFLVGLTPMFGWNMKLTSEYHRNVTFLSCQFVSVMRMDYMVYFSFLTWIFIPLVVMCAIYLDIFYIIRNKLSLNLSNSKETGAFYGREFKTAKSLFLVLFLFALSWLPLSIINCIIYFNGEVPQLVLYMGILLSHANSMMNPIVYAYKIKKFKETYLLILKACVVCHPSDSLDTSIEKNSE
Experimental: as §1, §2

[1] = * data are minimum values since preparation was found, after testing, to contain an inactive impurity

| Compound | A2a, EC50 as a ratio of that of NECA (adenosine 2a receptor; [1]) | A1, EC50 as a ratio of that of NECA (adenosine 1 receptor; [1]) | A3, EC50 as a ratio of that of NECA (adenosine 3 receptor; [1]) | A2a, EC50 as a ratio of that of NECA (adenosine 2a receptor; CHO cells, SPAP readout) | A1, EC50 as a ratio of that of NECA (adenosine 1 receptor; CHO cells, SPAP readout) | A3, EC50 as a ratio of that of NECA (adenosine 3 receptor; CHO cells, SPAP readout) |
| --- | --- | --- | --- | --- | --- | --- |
| Cc1noc(C2OC(n3cnc4c(NCC(c5ccccc5)c5ccccc5)nc(NCCc5c[nH]cn5)nc43)C(O)C2O)n1 [Example 34, (2R,3R,4S,5S)-2-{6-(2,2-Diphenyl-ethylamino)-2-[2-(1H-imidazol-4-yl)-ethylamino]-purin-9-yl}-5-(3-methyl-[1,2,4oxadiazol-5-yl)-tetrahydro-furan-3,4-diol formate] | 8.31 | 3270.8 | 231.1 | – | – | – |
| CCc1noc([C@H]2O[C@@H](n3cnc4c(NC(CC)CC)nc(NCCc5ccccn5)nc43)[C@H](O)[C@@H]2O)n1.O=CO [Example 21, (2S,3S,4R,5R)-2-(3-Ethyl-[1,2,4]oxadiazol-5-yl)-5-[6-(1-ethyl-propylamino)-2-(2-pyridin-2-yl-ethylamino)-purin-9-yl]-tetrahydro-furan-3,4-diol formate] | 9.39 | >5090 | >303 | – | – | – |
| CCc1noc(C2OC(n3cnc4c(NC(CC)CC)nc(NC5CCNC5)nc43)C(O)C2O)n1 [Example 27, (2S,3S,4R,5R)-2-(3-Ethyl-[1,2,4]oxadiazol-5-yl)-5-[6-(1-ethyl-propylamino)-2-(pyrrolidin-3R-ylamino)-purin-9-yl]-tetrahydro-furan-3,4-diol formate] | 10.5 | 263.14 | >284 | – | – | – |
| Cc1noc(C2OC(n3cnc4c(N)nc(NCCc5ccccn5)nc43)C(O)C2O)n1.O=CO.O=CO (stereo not drawn) [Example 30] | 19.54 | 1460.7 | >215 | – | – | – |
| CCc1noc([C@H]2O[C@@H](n3cnc4c(NCC(c5ccccc5)c5ccccc5)nc(NC5CC6CCC5C6)nc43)[C@H](O)[C@@H]2O)n1.O=CO (stereo partly drawn) [Example 41, (2R,3R,4S,5S)-2-{2-(Bicyclo[2.2.1]hept-2-ylamino)-6-(2,2-diphenyl-ethylamino)-purin-9-yl}-5-(3-ethyl-[1,2,4]oxadiazol-5-yl)-tetrahydro-furan-3,4-diol formate] | – | – | – | 23.93 | 2033.2 | >130 |
| CCCc1noc([C@H]2O[C@@H](n3cnc4c(NCC(c5ccccc5)c5ccccc5)nc(NCCc5cn(C)cn5)nc43)[C@H](O)[C@@H]2O)n1.O=CO [Example 33, (2R,3R,4S,5S)-2-{6-(2,2-Diphenyl-ethylamino)-2-[2-(1-methyl-1H-imidazol-4-yl)-ethylamino]-purin-9-yl}-5-(3-propyl-[1,2,4]oxadiazol-5-yl)-tetrahydro-furan-3,4-diol formate] | 8.35 | ≧815.9 | >259 | – | – | – |
| CCc1noc([C@H]2O[C@@H](n3cnc4c(NCC(c5ccccc5)c5ccccc5)nc(Nc5ccc(F)cc5)nc43)[C@H](O)[C@@H]2O)n1.O=CO [Example 44, (2R,3R,4S,5S)-2-[6-(2,2-Diphenyl-ethylamino)-2-(4-fluoro-phenylamino)-purin-9-yl]-5-(3-ethyl-[1,2,4]oxadiazol-5-yl)-tetrahydro-furan-3,4-diol formate] | – | – | – | 94.39 | >6131 | >165 |
| CCc1noc([C@H]2O[C@@H](n3cnc4c(NC(CC)CC)nc(NCCN5CCOCC5)nc43)[C@H](O)[C@@H]2O)n1.O=CO [Example 19, (2S,3S,4R,5R)-2-(3-Ethyl-[1,2,4]oxadiazol-5-yl)-5-[6-(1-ethyl-propylamino)-2-(2-morpholin-4-yl-ethylamino)-purin-9-yl]-tetrahydro-furan-3,4-diol formate] | 34.52 | >5860 | >694 | – | – | – |
| CCC(CC)Nc1nc(NCCN2CCCCC2)nc2c1ncn2C1OC(c2nc(C3CC3)no2)C(O)C1O [Example 35, (2S,3S,4R,5R)-2-(3-Cyclopropyl-[1,2,4]oxadiazol-5-yl)-5-[6-(1-ethyl-propylamino)-2-(2-piperidin-1-yl-ethylamino)-purin-9-yl]-tetrahydro-furan-3,4-diolldiformate] | – | – | – | 7.89 | 912.1 | >194 |
| CCc1noc(C2OC(n3cnc4c(NCCC(C)(C)C)nc(NCCc5cn(C)cn5)nc43)C(O)C2O)n1.O=CO.O=CO [Example 48, (2R,3R,4S,5S)-2-{6-(3,3-Dimethyl-butylamino)-2-[2-(1-methyl-1H-imidazol-4-yl)-ethylamino]-purin-9-yl}-5-(3-ethyl-[1,2,4]oxadiazol-5-yl)-tetrahydro-furan-3,4-diol diformate] | – | – | – | 4.40 | 16.84 | >165 |
| CCc1noc([C@H]2O[C@@H](n3cnc4c(NC(CC)CC)nc(NCCc5cn(C)cn5)nc43)[C@H](O)[C@@H]2O)n1.O=CO [Example 13, (2S,3S,4R,5R)-2-(3-Ethyl-[1,2,4]oxadiazol-5-yl)-5-(6-(1-ethyl-propylamino)-2-[2-(1-methyl-1H-imidazol-4-yl)-ethylamino]-purin-9-yl}tetrahydro-furan-3,4-diol formate] | – | – | – | 0.61 | >=4370 | >289 |

Second part, the compound after the results:

| A2a, EC50 as a ratio of that of NECA (adenosine 2a receptor; [1]) | A1, EC50 as a ratio of that of NECA (adenosine 1 receptor; [1]) | A3, EC50 as a ratio of that of NECA (adenosine 3 receptor; [1]) | A2a, EC50 as a ratio of that of NECA (adenosine 2a receptor; CHO cells, SPAP readout) | A1, EC50 as a ratio of that of NECA (adenosine 1 receptor; CHO cells, SPAP readout) | A3, EC50 as a ratio of that of NECA (adenosine 3 receptor; CHO cells, SPAP readout) | Compound |
| --- | --- | --- | --- | --- | --- | --- |
| – | – | – | 20.13 | >9364 | >194 | CCC(CC)Nc1nc(NCCN2CCOCC2)nc2c1ncn2C1OC(c2nc(C3CC3)no2)C(O)C1O.O=CO.O=CO (stereo not drawn) [Example 36] |
| – | – | – | 2.02 | 670.04 | >87 | (2S,3S,4R,5R)-2-(3-Cyclopropyl-[1,2,4]oxadiazol-5-yl)-5-[6-(1-ethyl-propylamino)-2-(2-(1-methyl-1H-imidazol-4-yl)-ethylamino)-purin-9-yl]-tetrahydro-furan-3,4-diol diformate [Example 38] |
| 4.63 | 6719 | >304 | – | – | – | CCc1noc(C2OC(n3cnc4c(NCC(c5ccccc5)c5ccccc5)nc(NC5CCNC5)nc43)C(O)C2O)n1 [Example 3, (2R,3R,4S,5S)-2-[6-(2,2-Diphenyl-ethylamino)-2-(pyrrolidin-3R-ylamino)-purin-9-yl]-5-(3-ethyl-[1,2,4]oxadiazol-5-yl)-tetrahydro-furan-3,4-diol formate] |
| – | – | – | 19.35 | 515.35 | >163 | CCc1noc([C@H]2O[C@@H](n3cnc4c(NC(CC)CC)nc(N[C@H]5CCC[C@@H]5O)nc43)[C@H](O)[C@@H]2O)n1.O=CO [Example 25, (2S,3S,4R,5R)-2-(3-Ethyl-[1,2,4]oxadiazol-5-yl)-5-[6-(1-ethyl-propylamino)-2-(2S-hydroxy-cyclopent-(S)-ylamino)-purin-9-yl]-tetrahydro-furan-3,4-diol formate] |
| – | – | – | 5.37 | >=3996 | >383 | CCc1noc(C2OC(n3cnc4c(NCC(c5ccccc5)c5ccccc5)nc(NC5CCC(N)CC5)nc43)C(O)C2O)n1.O=CO.O=CO [Example 4, (2R,3R,4S,5S)-2-[2-(trans-4-Amino-cyclohexylamino)-6-(2,2-diphenyl-ethylamino)-purin-9-yl]-5-(3-ethyl-[1,2,4]oxadiazol-5-yl)-tetrahydro-furan-3,4-diol diformate] |
| – | – | – | 30.21 | 4505.4 | >130 | CCc1noc(C2OC(n3cnc4c(NCC(c5ccccc5)c5ccccc5)nc(NCCN5CCCC5)nc43)C(O)C2O)n1.O=CO.O=CO (stereo not drawn) [Example 39] |
| – | – | – | 22.25 | 78.28 | >193 | CCC(CC)Nc1nc(NC2CCCC2)nc2c1ncn2[C@@H]1O[C@H](c2nc(C)no2)[C@@H](O)[C@H]1O.O=CO [Example 22] |
| 7.66 | 3449.6 | >269 | – | – | – | CCc1noc(C2OC(n3cnc4c(N)nc(NCCc5cn(C)cn5)nc43)C(O)C2O)n1 [Example 10, (2R,3R,4S,5S)-2-{6-Amino-2-[2-(1-methyl-1H-imidazol-4-yl)-ethylamino]-purin-9-yl}-5-(3-ethyl-1,2,4]oxadiazol-5-yl)-tetrahydro-furan-3,4-diol diformate] |
